The text below walks through data of patent US12103952B2, “Methods for expressing proteins in axons” (Cornell University, priority 2010, dated 2024).

This assay concerns E15 dissociated DRG neurons. The assay is described as follows: NGF-mediated retrograde survival in compartmented (Campenot) chambers, TUNEL assay. It counts as cell-based, rat. The method, then:
FIGS. 2A-E are results showing that local protein synthesis in axons is required for NGF-dependent survival. (A) Phospho-4E-BP1 levels increase in growth cones in response to NGF treatment. DRG neurons were incubated with NGF-replete or NGF-free media; phospho-4E-BP1 levels in axons were measured by immunofluorescence. Scale bar, 50 μm. (B) Quantification of total and phospho-4EBP1 in (A) p=0.012. Numbers on bars represent n axons per condition. (C) Schematic diagram of compartmented (Campenot) chambers. E15 dissociated DRG neurons are cultured in the cell body compartment and axons grow under a thinly applied silicone grease layer that seals the chamber with the Permanox® plastic culture slide. (D) Application of protein synthesis inhibitors to axons blocks NGF-mediated retrograde survival. Dissociated DRG neurons were grown in compartmentalized chambers, and vehicle or NGF was added to the axon compartment. 1 μM cycloheximide (CHX) or 40 μM anisomycin (Aniso) were added to the axon compartment concurrently with NGF media. Cell body compartments were kept NGF-free during the course of the experiment. Cells crossing the divider were retrogradely labeled with WGA-Alexa555 and only WGA-positive cell bodies were counted in the data set. Survival was assessed by TUNEL assay. Examples of non-apoptotic and apoptotic are indicated with closed and open arrows, respectively (Blue=DAPI, Green=TUNEL). Scale bar, 20 μm. (E) Quantification of results from (D). *p<0.001. Numbers on bars represent n cells per condition.
Campenot chambers were modified for FISH and Immunofluorescence analysis as follows: Teflon dividers were applied to poly-D-lysine, laminin and collagen (1 mg/ml)-coated Lab-Tek chambers (NUNC). The low autofluorescence of the Permanox® plastic in these chambers allows us to perform fluorescence analyses on these cultures much more readily than is possible using traditional cell culture plasticware. E15 dissociated DRG neurons were plated in the cell body compartment in media containing 100 ng/ml NGF and 20 μM 5′-fluorodeoxyuridine to inhibit glial growth. Media was changed every 2 DIV and NGF concentration in the cell body compartment was halved at each media change. At DIV 5, when axons had crossed the divide into the axonal compartment, NGF was withdrawn from the cell body compartment and experimental media containing NGF (0 ng/ml or 30 ng/ml) and/or drug treatments/siRNA transfection reagents was applied to the axon compartment for a further 2 DIV. All media were completely replaced every subsequent 12 hours to ensure purity of the conditions in the respective compartments. […]

Where [1] appears, read: axonal application together with NGF, 1 μM cycloheximide or 40 μM anisomycin, compared to NGF alone.

In the case of `COc1ccc(C[C@H]2NC[C@H](O)[C@H]2OC(C)=O)cc1` [anisomycin], under setting [1], the neuronal survival result is recorded as “significant reduction in survival”.
`C[C@@H]1C[C@@H]([C@H](O)CC2CC(=O)NC(=O)C2)C(=O)[C@@H](C)C1` [cycloheximide]: the neuronal survival entry under setting [1] is “significant reduction in survival”.
For NGF: nerve growth factor, the DRG survival result (5 DIV compartmented cultures, NGF applied to either axons or cell bodies individually) is listed as “capable of supporting DRG survival”. Also, the neuronal survival result (NGF applied exclusively to the axonal compartment, cell body compartment NGF-free, 48 hour, compared to vehicle-treated axons) is given as “significant increase in neuronal survival”.
